Experimental data taken from US10712339B2, “Engineering of a novel breast tumor microenvironment on a microfluidic chip” (Arizona Board of Regents on behalf of Arizona State …, priority 2014, dated 2020).

Test system: Endothelial cells (HUVECs)
Text: To study vasculogenesis and to optimize the ECM composition for endothelial cell sprouting, we first developed a microfluidic model comprised of a single culture region surrounded by the media region. This device was selected to study endothelial growth without the interference of other cell types or the stroma. Since the media channel is in a different compartment from the cell culture region, it facilitated the development of a gradient of biomolecules. To encapsulate endothelial cells fibrin was chosen, as it is known to play a major role in regulating angiogenesis in 3D ECM. Endothelial cells (HUVECs) at a cell density of 20 million cells/ml were injected into the devices and growth and maturation of vascular networks were monitored over a culture period of 5 days. We introduced vascular endothelial growth factor (VEGF) in to the culture media and assessed the subsequent effects on vasculogenesis. VEGF is known as a major growth factor secreted during cancer progression which leads to formation of new blood vessels. […] We primarily compared the diameter and branching of vascular networks and further assessed the permeability of microvessels within each experimental condition.

With VEGF the permeability of microvessels (VEGF in culture media vs No VEGF control) was “higher permeability”, the “structure of endothelial networks” value (VEGF in culture media vs No VEGF control, 5 day culture) was “impaired structurally” and the “diameter of the formed vascular networks” value (addition of VEGF, endothelial mono-culture in single layer platform) was “reduced”. For the same substance, the “endothelial cell morphology and intercellular connections” value (low and high VEGF conditions vs No VEGF control, from day 1) was “elongated morphology with intercellular connections”.
